In paper PMC8730602 (2022):

How the values were obtained:
[1] = test system: thiolated cortisol aptamer (DNA, aptamer) CGACCGGTCTGGGGACCCTGTCTGGGTGTGTGGGTAGTAGGTCG; test: aptamer field-effect transistor; details: artificial sweat (Table S5), immobilised aptamer; for binding: negligible response at physiological concentrations versus 10 nM cortisol
[2] = test system: thiolated serotonin aptamer (DNA, aptamer) CGACTGGTAGGCAGATAGGGGAAGCTGATTCGATGCGTGGGTCG; test: aptamer field-effect transistor; details: artificial sweat (Table S5); immobilised aptamer; response over 10 fM to 100 µM
[3] = test system: cortisol aptamer, fluorescein at 5' end (DNA, aptamer) CTCTCGGGACGACCGGTCTGGGGACCCTGTCTGGGTGTGTGGGTAGTAGGTCGTCCC; test: competitive structure-switching fluorescence (FAM/dabcyl); details: 154 mM NaCl, 1.058 mM KH2PO4, 2 mM MgCl2; PBS pH 7.3-7.5; dabcyl quencher strand GGTCGTCCCGAGAG displaced, aptamer:quencher 1:5

SMILES	binding [1]	binding [2]	Kd ([1]; on-FET, gate-voltage sweep, apparent)	Kd [3] [µM]
C[C@]12CC[C@H]3[C@@H](CCC4=CC(=O)CC[C@@]43C)[C@@H]1CC[C@@H]2O	no			
NCCc1c[nH]c2ccc(O)cc12	no	yes		
C[C@]12CCC(=O)C=C1CC[C@@H]1[C@@H]2[C@@H](O)C[C@@]2(C)[C@H]1CC[C@]2(O)C(=O)CO			~ 30 pM	0.5
CC(=O)[C@H]1CC[C@H]2[C@@H]3CCC4=CC(=O)CC[C@]4(C)[C@H]3CC[C@]12C	no			
